One test has as its system KB. Kind of test: Cytotoxicity against human KB cells. The following applies: read-out: ED50 (the source's name). Type of test: functional.
A further test has as its system P388. Kind of test: Cytotoxicity against mouse P388 cells. To be noted: read-out: ED50 (the source's name). It counts as functional.

In brackets after ≈: the same amount, converted by molar mass.

`CCC1CCCN(CCc2c([C@H]3CCCc4c(CCN5CCCC(CC)C5)c5ccccc5n43)[nH]c3ccccc23)C1` (stereo partly drawn): the EC50 with KB is 0.5 µg/mL (≈ 0.885 µM); with P388 it was 0.29 µg/mL (≈ 0.513 µM).
For `CCC1CCCN(CCc2c([C@@]3(COC(C)=O)CC[C@@H](COC(C)=O)c4c(CCN5CCCC(CC)C5)c5ccccc5n43)[nH]c3ccccc23)C1` (stereo partly drawn), the EC50 in the test with KB stood at 2.4 µg/mL (≈ 3.39 µM); in the test with P388 it was 1.6 µg/mL (≈ 2.26 µM).
Consider `C/C=C1/CN2[C@H]3Cc4c([nH]c5ccccc45)[C@@H]2C[C@@H]1[C@@]3(CO)C(=O)OC` [POLYNEURIDINE], for which the EC50 with KB and in the test with P388 was more than 100 µg/mL throughout.
In the case of `C/C=C1/CN2CC[C@]34C(=C(C(=O)OC)[C@H]1C[C@H]23)Nc1ccc(O)cc14` [SEWARINE], in the test with P388, the EC50 was found to be 2.7 µg/mL (≈ 7.98 µM).
As to `CCC1CCCN(CCc2c([C@@]3(CO)CC[C@@H](CO)c4c(CCN5CCCC(CC)C5)c5ccccc5n43)[nH]c3ccccc23)C1` (stereo partly drawn) [TETRAHYDROSECAMINEDIOL], the EC50 with KB was 0.0038 µg/mL (≈ 0.00608 µM); in the test on P388, 0.33 µg/mL (≈ 0.528 µM).
Turning to `CCC1CCCN(CCc2c([C@@]3(C(=O)OC)CC[C@@H](C(=O)OC)c4c(CCN5CCCC(CC)C5)c5ccccc5n43)[nH]c3ccccc23)C1` (stereo partly drawn) [TETRAHYDROSECAMINE], the EC50 with KB is 0.69 µg/mL (≈ 1.01 µM); in the test with P388, 0.4 µg/mL (≈ 0.587 µM).
With `C/C=C(/C=O)[C@@H]1C[C@H]2c3[nH]c4ccccc4c3CCN2C=C1C(=O)OC` [VALLESIACHOTAMINE], the EC50 in the test on KB was determined as 3.56 µg/mL (≈ 10.2 µM); in the test with P388, 1.1 µg/mL (≈ 3.14 µM).

Values taken from ChEMBL document CHEMBL1151378, “Anticancer indole alkaloids of Rhazya stricta” (1981).
